These are literature values, as cited in patent publication US7612172B2, “Nucleic acids and corresponding proteins entitled 282P1G3 useful in treatment and detection of cancer” (Agensys, Inc., priority 2002, dated 2009).

Data set [1] has as its system LAGE-I tumor specific gene. The settings on record: lymphoblastoid cells.
A further data set relates to T helper lymphocytes. The settings on record: regardless of HLA type.

Take `Nc1ncn([C@H]2C[C@H](O)[C@@H](CO)O2)c(=O)n1` [deoxy-azacytidine]: in data set [1], the “expression of the LAGE-I tumor specific gene” value is given as “induced”.
In the case of aKXVAAWTLKAa, the “binding to HLA-DR alleles” value in the data set with HLA-DR alleles is “bind to most HLA-DR alleles”. Also, the “stimulation of T helper lymphocyte response” value in the data set on T helper lymphocytes is given as “stimulate the response of T helper lymphocytes from most individuals”.
